Laboratory results published in patent publication US20030130180A1, “Utilization of an aminopeptidase inhibitor” (priority 2000, published 2003).

Test system: Karpas cells
Assay: Detection of surface protein combinations of the protein network on untreated (V1) and actinonin-treated (V2) Karpas cells
Type: cell-based
Settings: actinonin-treated Karpas cells (V2)
Description: Principally, detecting of the surface protein combinations may comprise procedural steps of an automated method for determining molecular classes, molecular groups or molecular parts in a solid or liquid object according to DE 197 09 348 C. In these steps, surface proteins may be examined and measured in one and the same object, i.e. in a sample of immune cells and/or tumor cells for example, by sequentially applying reagent solutions Yn (n=1,2,3, . . . N) by means of an automated apparatus, said procedural steps being: I. taking a first reagent solution Y1 from a vessel containing the reagent solution, II. applying said reagent solution Y1 to the object which is on an object slide, III. allowing the reagent solution to react for an automatically set period of time, IV. recording at least one individual labeling pattern of the object previously labeled with said first reagent solution Y1, V. repeating steps I-IV by applying said first reagent solution Y1 or a second reagent solution Y2 or a mixture of said first and second reagent solutions, and VI. repeating steps I to V with further reagent solutions Yn (n=2,3, . . . N) or a mixture thereof and whereby the labeling distribution patterns obtained in each cycle of the method are turned into a complex molecular combination pattern of the object to be examined by computer-aided image overlay. From this combination pattern, information may be gained on the presence of the above mentioned proteins, thus also allowing detection of the surface protein combinations, if the reagent solutions used contain labeled substances directed against the proteins in question. In numerous examinations, it was possible to identify the 30 cell surface proteins already listed above which belong to a specific protein network controlling the early polarization stages of tumor cells and immune cells. In a further examination, surface protein combinations of this protein network of Karpas cells were detected, both in untreated form and after treatment with the aminopeptidase inhibitor actinonin. For this purpose, two groups V1 and V2 of Karpas cells were formed, with the cells of group Vl remaining untreated, while the cells of group V2 were treated with actinonin. Table 2 lists those surface protein combinations which are present both in the actinonin-treated cells and in the untreated cells. However, this table and the further tables 3 and 4 only give examples of 18 of the 30 proteins, with the detected proteins being designated 1 and the non-detected proteins being designated 0. The proteins are continuously numbered 1 to 18, with the nomenclature being notable from table 1. [table] The cell numbers stated in tables 2 to 4 refer to each 1,000 cells examined in groups V1 and V2. Table 3 lists the surface protein combinations which only occur in the untreated Karpas cells and are never found in the actinonin-treated Karpas cells. The number of protein combinations listed in this table 3 amounts to 131. Finally, table 4 exclusively lists those surface protein combinations which occur exclusively in the actinonin-treated Karpas cells. It may be gathered from tables 2 to 4 that, if one examines merely 18 proteins of the 30 proteins, a total of 394 different surface protein combinations will occur, with a total of 334 different combinations occurring in the untreated cells and a total of 263 different combinations being detected in the treated cells.

Measured: V2 No. of cells In 1/1000

CCCCC[C@H](CC(=O)NO)C(=O)N[C@H](C(=O)N1CCC[C@H]1CO)C(C)C [actinonin]
0.0 1/1000: surface protein combination No. 19, binary code proteins 1-18: 011000011101011100, untreated V1: 0.4 | surface protein combination No. 20, binary code proteins 1-18: 011000011000000000, untreated V1: 0.4 | surface protein combination No. 21, binary code proteins 1-18: 010000001101001100, untreated V1: 0.4 | surface protein combination No. 22, binary code proteins 1-18: 010000001100011100, untreated V1: 0.4 | surface protein combination No. 23, binary code proteins 1-18: 001100011011001000, untreated V1: 0.4 | surface protein combination No. 24, binary code proteins 1-18: 001100011001001000, untreated V1: 0.4 | surface protein combination No. 25, binary code proteins 1-18: 001000010101101000, untreated V1: 0.4 | surface protein combination No. 26, binary code proteins 1-18: 001000010010001000, untreated V1: 0.4 | surface protein combination No. 27, binary code proteins 1-18: 000000000010001000, untreated V1: 0.4 | surface protein combination No. 28, binary code proteins 1-18: 111000011111011100, untreated V1: 0.2 | surface protein combination No. 29, binary code proteins 1-18: 110000011100011100, untreated V1: 0.2 | surface protein combination No. 30, binary code proteins 1-18: 101100000000001100, untreated V1: 0.2 | surface protein combination No. 31, binary code proteins 1-18: 101000111111011000, untreated V1: 0.2 | surface protein combination No. 32, binary code proteins 1-18: 011100011111011100, untreated V1: 0.2 | surface protein combination No. 33, binary code proteins 1-18: 011100011100001000, untreated V1: 0.2 | surface protein combination No. 34, binary code proteins 1-18: 011100001100001100, untreated V1: 0.2 | surface protein combination No. 35, binary code proteins 1-18: 001100000011001000, untreated V1: 0.2 | surface protein combination No. 36, binary code proteins 1-18: 001000011100000000, untreated V1: 0.2 | surface protein combination No. 37, binary code proteins 1-18: 001000010111011100, untreated V1: 0.2 | surface protein combination No. 38, binary code proteins 1-18: 001000010110001000, untreated V1: 0.2 | surface protein combination No. 39, binary code proteins 1-18: 001000001011000000, untreated V1: 0.2 | surface protein combination No. 40, binary code proteins 1-18: 000100010100001000, untreated V1: 0.2 | surface protein combination No. 41, binary code proteins 1-18: 000000011011001000, untreated V1: 0.2 | surface protein combination No. 42, binary code proteins 1-18: 000000010110001000, untreated V1: 0.2 | surface protein combination No. 43, binary code proteins 1-18: 000000010010001000, untreated V1: 0.2 | surface protein combination No. 44, binary code proteins 1-18: 000000000000001100, untreated V1: 0.2 | surface protein combination No. 45, binary code proteins 1-18: 111100101100011000, untreated V1: 0.1 | surface protein combination No. 46, binary code proteins 1-18: 111100011101001100, untreated V1: 0.1 | surface protein combination No. 47, binary code proteins 1-18: 111100011100111100, untreated V1: 0.1 | surface protein combination No. 48, binary code proteins 1-18: 111100011100011000, untreated V1: 0.1 | surface protein combination No. 49, binary code proteins 1-18: 111000011111011000, untreated V1: 0.1 | surface protein combination No. 50, binary code proteins 1-18: 111000011101011000, untreated V1: 0.1 | surface protein combination No. 51, binary code proteins 1-18: 111000001100011100, untreated V1: 0.1 | surface protein combination No. 52, binary code proteins 1-18: 110000001101011100, untreated V1: 0.1 | surface protein combination No. 53, binary code proteins 1-18: 110000001100000100, untreated V1: 0.1 | surface protein combination No. 54, binary code proteins 1-18: 101100011011011000, untreated V1: 0.1 | surface protein combination No. 55, binary code proteins 1-18: 101100010111001100, untreated V1: 0.1 | surface protein combination No. 56, binary code proteins 1-18: 101100010011001000, untreated V1: 0.1 | surface protein combination No. 57, binary code proteins 1-18: 101100000000001000, untreated V1: 0.1 | surface protein combination No. 58, binary code proteins 1-18: 101000110101011000, untreated V1: 0.1 | surface protein combination No. 59, binary code proteins 1-18: 101000011111011100, untreated V1: 0.1 | surface protein combination No. 60, binary code proteins 1-18: 101000011101011000, untreated V1: 0.1 | surface protein combination No. 61, binary code proteins 1-18: 101000010111111000, untreated V1: 0.1 | surface protein combination No. 62, binary code proteins 1-18: 101000010101011100, untreated V1: 0.1 | surface protein combination No. 63, binary code proteins 1-18: 100100110100011100, untreated V1: 0.1 | surface protein combination No. 93, binary code 001100010111111000 | surface protein combination No. 94, binary code 001100010111101100 | surface protein combination No. 95, binary code 001100010100011000 | surface protein combination No. 96, binary code 001100010011001100 | surface protein combination No. 97, binary code 001100010001001100 | surface protein combination No. 98, binary code 001100001101001000 | surface protein combination No. 99, binary code 001100000101000000 | surface protein combination No. 100, binary code 001000111111011000 | surface protein combination No. 101, binary code 001000111101011000 | surface protein combination No. 102, binary code 001000111011011000 | surface protein combination No. 103, binary code 001000011111011100 | surface protein combination No. 104, binary code 001000011101101000 | surface protein combination No. 105, binary code 001000011001011000 | surface protein combination No. 106, binary code 001000011001000100 | surface protein combination No. 107, binary code 001000010111101000 | surface protein combination No. 108, binary code 001000010101000100 | surface protein combination No. 109, binary code 001000010100011000 | surface protein combination No. 110, binary code 001000010011010000 | surface protein combination No. 111, binary code 001000010001011100 | surface protein combination No. 112, binary code 001000001111001000 | surface protein combination No. 113, binary code 001000001011001000 | surface protein combination No. 114, binary code 001000001001001000 | surface protein combination No. 115, binary code 001000001000000000 | surface protein combination No. 116, binary code 001000000110001000 | surface protein combination No. 117, binary code 000100011001000000
